From ChEMBL document CHEMBL3885861, “Open TG-GATES”

Organism: Rattus norvegicus
Test: Open TG-GATES - Regimen: Single
Type: toxicity, organism-based, Sprague-Dawley
Parameters: regimen Single, gender Male, age 6 weeks
Settings: in vivo, po, 10 mg/kg, route gavage, dose level Middle; for KIDNEY_L / KIDNEY_R / KIDNEY_TOTAL: tissue Kidney; for LIVER: tissue Liver

`CNCCC(Oc1ccc(C(F)(F)F)cc1)c1ccccc1.Cl` (centres undefined) [FLUOXETINE HYDROCHLORIDE] gave a Bas (3 h, tissue Blood) of 0%, an Eos (3 h, tissue Blood) of 1.2% and a Ht (3 h, tissue Blood) of 41.6%. For the same compound, the Lym (3 h, tissue Blood) was 68.4%, the MCHC (3 h, tissue Blood) was 32.1% and the Ret (3 h, tissue Blood) was 8.7%. For the same compound, the WBC (3 h, tissue Blood) was 85.2 x10_2/uL, the KIDNEY_L (3 h) was 1 g and the KIDNEY_R (3 h) was 1 g. For the same compound, the KIDNEY_TOTAL (3 h) was 2 g, the ALP (3 h, tissue Plasma) was 1509 IU/L and the ALT (3 h, tissue Plasma) was 36.6 IU/L. For the same compound, the BUN (3 h, tissue Plasma) was 13.8 mg/dL, the CRE (3 h, tissue Plasma) was 0.4 mg/dL and the DBIL (3 h, tissue Plasma) was 0.014 mg/dL. For the same compound, the GLC (3 h, tissue Plasma) was 201.4 mg/dL, the IP (3 h, tissue Plasma) was 10.3 mg/dL and the K (3 h, tissue Plasma) was 5.2 meq/L. The Na (3 h, tissue Plasma) was 138.6 meq/L, the RALB (3 h, tissue Plasma) was 4.1 g/dL and the TBIL (3 h, tissue Plasma) was 0.042 mg/dL. It also gave a TG (3 h, tissue Plasma) of 128.6 mg/dL, a TP (3 h, tissue Plasma) of 5.9 g/dL and a gamma-GTP (3 h, tissue Plasma) of 0 IU/L. It also gave a TERMINAL_BW (6 h) of 215.2 g, a Bas (6 h, tissue Blood) of 0% and an Eos (6 h, tissue Blood) of 1%. For the same compound, the Ht (6 h, tissue Blood) was 40.8%, the Lym (6 h, tissue Blood) was 70% and the MCH (6 h, tissue Blood) was 21.9 pg. For the same compound, the MCHC (6 h, tissue Blood) was 32.6%, the Ret (6 h, tissue Blood) was 8.2% and the WBC (6 h, tissue Blood) was 96.4 x10_2/uL. It also gave a KIDNEY_L (6 h) of 0.9 g, a KIDNEY_R (6 h) of 1 g and a KIDNEY_TOTAL (6 h) of 1.9 g. It also gave an LIVER (6 h) of 10 g, an ALP (6 h, tissue Plasma) of 1142 IU/L and an ALT (6 h, tissue Plasma) of 32.8 IU/L. It also gave a BUN (6 h, tissue Plasma) of 10.8 mg/dL, a CRE (6 h, tissue Plasma) of 0.4 mg/dL and a DBIL (6 h, tissue Plasma) of 0.008 mg/dL. It also gave a GLC (6 h, tissue Plasma) of 193.8 mg/dL, an IP (6 h, tissue Plasma) of 9.7 mg/dL and a K (6 h, tissue Plasma) of 4.9 meq/L. The Na (6 h, tissue Plasma) was 137.4 meq/L, the RALB (6 h, tissue Plasma) was 3.9 g/dL and the TBIL (6 h, tissue Plasma) was 0.038 mg/dL. For the same compound, the TG (6 h, tissue Plasma) was 85.8 mg/dL, the TP (6 h, tissue Plasma) was 5.4 g/dL and the gamma-GTP (6 h, tissue Plasma) was 1 IU/L. For the same compound, the TERMINAL_BW (9 h) was 214.8 g, the Bas (9 h, tissue Blood) was 0% and the Eos (9 h, tissue Blood) was 1%. For the same compound, the Ht (9 h, tissue Blood) was 40.2%, the Lym (9 h, tissue Blood) was 75.6% and the MCHC (9 h, tissue Blood) was 32.5%. It also gave a Ret (9 h, tissue Blood) of 7.8%, a WBC (9 h, tissue Blood) of 95 x10_2/uL and a KIDNEY_L (9 h) of 1 g. It also gave a KIDNEY_R (9 h) of 1 g, a KIDNEY_TOTAL (9 h) of 1.9 g and an LIVER (9 h) of 9.2 g. It also gave an ALP (9 h, tissue Plasma) of 1045.4 IU/L, an ALT (9 h, tissue Plasma) of 28.8 IU/L and a BUN (9 h, tissue Plasma) of 10.6 mg/dL. For the same compound, the CRE (9 h, tissue Plasma) was 0.4 mg/dL, the DBIL (9 h, tissue Plasma) was 0.006 mg/dL and the GLC (9 h, tissue Plasma) was 191 mg/dL. The IP (9 h, tissue Plasma) was 10.8 mg/dL, the K (9 h, tissue Plasma) was 5 meq/L and the Na (9 h, tissue Plasma) was 137.9 meq/L. It also gave a PL (9 h, tissue Plasma) of 135 mg/dL, an RALB (9 h, tissue Plasma) of 3.8 g/dL and a TBIL (9 h, tissue Plasma) of 0.04 mg/dL. It also gave a TG (9 h, tissue Plasma) of 41.4 mg/dL, a TP (9 h, tissue Plasma) of 5.3 g/dL and a gamma-GTP (9 h, tissue Plasma) of 0.6 IU/L. The TERMINAL_BW (24 h) was 227.3 g, the Bas (24 h, tissue Blood) was 0% and the Eos (24 h, tissue Blood) was 1%. It also gave a Ht (24 h, tissue Blood) of 41.2%, a Lym (24 h, tissue Blood) of 76.2% and an MCHC (24 h, tissue Blood) of 32.6%. For the same compound, the Ret (24 h, tissue Blood) was 7.7%, the WBC (24 h, tissue Blood) was 100.4 x10_2/uL and the KIDNEY_L (24 h) was 1 g. For the same compound, the KIDNEY_R (24 h) was 1 g, the KIDNEY_TOTAL (24 h) was 1.9 g and the LIVER (24 h) was 11 g. The ALP (24 h, tissue Plasma) was 1378 IU/L, the ALT (24 h, tissue Plasma) was 34.6 IU/L and the BUN (24 h, tissue Plasma) was 16.4 mg/dL. For the same compound, the CRE (24 h, tissue Plasma) was 0.4 mg/dL, the DBIL (24 h, tissue Plasma) was 0.01 mg/dL and the GLC (24 h, tissue Plasma) was 192.6 mg/dL. For the same compound, the IP (24 h, tissue Plasma) was 7.9 mg/dL, the K (24 h, tissue Plasma) was 5.1 meq/L and the Na (24 h, tissue Plasma) was 138.1 meq/L. The RALB (24 h, tissue Plasma) was 3.9 g/dL, the TBIL (24 h, tissue Plasma) was 0.034 mg/dL and the TG (24 h, tissue Plasma) was 152.6 mg/dL. It also gave a TP (24 h, tissue Plasma) of 5.5 g/dL and a gamma-GTP (24 h, tissue Plasma) of 1 IU/L.
